Experimental findings from patent publication US20120190687A1, “Pyrazinylpyrazoles” (Bayer CropScience Ag, priority 2009, published 2012) are described below.

Data set [1] is described as follows: logP by reversed-phase HPLC (EEC Directive 79/831 Annex V.A8). It counts as physicochemical. To be noted: * LC-MS, acidic range, pH 2.7, 0.1% aqueous formic acid / acetonitrile. From the text: [table] The calibration is effected with unbranched alkan-2-ones (having 3 to 16 carbon atoms) with known log P values (log P values determined on the basis of the retention times by linear interpolation between two successive alkanones).

The test system of data set [2] is Boophilus microplus. The data set is described as follows: Boophilus microplus test (BOOPMI injection). In kind it is in vivo. The settings on record: 20 μg/animal, injection into abdomen, after 7 days, laying of fertile eggs. The protocol: Boophilus microplus Test (BOOPMI Injection) Solvent: Dimethyl Sulphoxide To prepare an appropriate active ingredient formulation, 10 mg of active ingredient are mixed with 0.5 ml of solvent and the concentrate is diluted with solvent to the desired concentration. The active ingredient solution is injected into the abdomen (Boophilus microplus), and the animals are transferred into dishes and stored in a climate-controlled room. The efficacy is assessed by laying of fertile eggs. After 7 days, the efficacy in % is determined. 100% means that none of the ticks has laid any fertile eggs.

The subject of data set [3] is Ctenocephalides felis. As to the kind of experiment: Ctenocephalides felis test (CTECFE). In kind it is in vivo. To be noted: 100 ppm in citrated cow's blood, after 2 days. On the procedure:
Ctenocephalides felis Test ([…]) Solvent: 1 Part by Weight of Dimethyl Sulphoxide For the purpose of preparing an appropriate active ingredient formulation, 10 mg of active ingredient are mixed with 0.5 ml of dimethyl sulphoxide. A portion of the concentrate is diluted with citrated cow's blood and the desired concentration is established. About 20 unfed adult fleas (Ctenocephalides felis) are introduced into a chamber closed at the top and bottom with gauze. A metal cylinder, the bottom of which is closed with Parafilm, is placed onto the chamber. The cylinder contains the blood/active ingredient preparation, which can be imbibed by the fleas through the Parafilm membrane. After 2 days, the kill in % is determined. 100% means that all fleas have been killed; 0% means that none of the fleas have been killed.

The test system of data set [4] is Lucilia cuprina larvae. The data set is described as follows: Lucilia cuprina test (LUCICU). It counts as in vivo. To be noted: 100 ppm, treated horse meat, after 2 days. The protocol: Lucilia cuprina Test (LUCICU) Solvent: Dimethyl Sulphoxide To prepare an appropriate active ingredient formulation, 10 mg of active ingredient are mixed with 0.5 ml of dimethyl sulphoxide and the concentrate is diluted with water to the desired concentration. Vessels containing horse meat treated with the active ingredient preparation of the desired concentration are populated with about 20 Lucilia cuprina larvae. After 2 days, the kill in % is determined. 100% means that all of the larvae have been killed; 0% means that none of the larvae have been killed.

Data set [5] has as its system Musca domestica. The data set is described as follows: Musca domestica test. It counts as in vivo. To be noted: 100 ppm, after 2 days. On the procedure:
Musca domestica Test Solvent: Dimethyl Sulphoxide To prepare an appropriate active ingredient formulation, 10 mg of active ingredient are mixed with 0.5 ml of dimethyl sulphoxide and the concentrate is diluted with water to the desired concentration. Vessels containing a sponge treated with the active ingredient preparation of the desired concentration are populated with adult Musca domestica. After 2 days, the kill in % is determined. 100% means that all of the flies have been killed; 0% means that none of the flies have been killed.

Data set [6] deals with Phaedon cochleariae. The data set is described as follows: Phaedon test (PHAECO spray treatment). In kind it is in vivo. To be noted: 500 g/ha, Chinese cabbage discs, after 7 days. On the procedure: Phaedon Test ([…] Spray Treatment) Solvent: 78.0 parts by weight of acetone • • 1.5 parts by weight of dimethylformamide Emulsifier: 0.5 part by weight of alkylaryl polyglycol ether To prepare an appropriate active ingredient preparation, 1 part by weight of active ingredient is mixed with the stated amounts of solvent and emulsifier, and the concentrate is diluted with emulsifier-containing water to the desired concentration. Discs of Chinese cabbage (Brassica pekinensis) are sprayed with an active ingredient preparation of the desired concentration and, after drying, populated with larvae of the mustard beetle (Phaedon cochleariae). After 7 days, the efficacy in % is determined. 100% means that all beetle larvae have been killed; 0% means that none of the beetle larvae have been killed.

Data set [7] has as its system Spodoptera frugiperda. The data set is described as follows: Spodoptera frugiperda test (SPODFR spray treatment). In kind it is in vivo. The settings on record: 500 g/ha, maize leaf discs, after 7 days. The protocol:
Spodoptera frugiperda Test (SPODFR Spray Treatment) Solvent: 78.0 parts by weight of acetone • • 1.5 parts by weight of dimethylformamide Emulsifier: 0.5 part by weight of alkylaryl polyglycol ether To prepare an appropriate active ingredient preparation, 1 part by weight of active ingredient is mixed with the stated amounts of solvent and emulsifier, and the concentrate is diluted with emulsifier-containing water to the desired concentration. Discs of maize leaves (Zea mays) are sprayed with an active ingredient preparation of the desired concentration and, after drying, populated with caterpillars of the armyworm (Spodoptera frugiperda). After 7 days, the efficacy in % is determined. 100% means that all caterpillars have been killed; 0% means that none of the caterpillars have been killed.

Data set [8] concerns Myzus persicae. The data set is described as follows: Myzus test (MYZUPE spray treatment). It counts as in vivo. The settings on record: 500 g/ha, Chinese cabbage discs, after 6 days. On the procedure:
Myzus test (MYZUPE Spray Treatment) Solvent: 78 parts by weight of acetone • • 1.5 parts by weight of dimethylformamide Emulsifier: 0.5 part by weight of alkylaryl polyglycol ether To prepare an appropriate active ingredient preparation, 1 part by weight of active ingredient is mixed with the stated amounts of solvent and emulsifier, and the concentrate is diluted with emulsifier-containing water to the desired concentration. Discs of Chinese cabbage (Brassica pekinensis) infested by all stages of the green peach aphid (Myzus persicae) are sprayed with an active ingredient preparation of the desired concentration. After 6 days, the efficacy in % is determined. 100% means that all of the aphids have been destroyed; 0% means that none of the aphids have been destroyed.

In data set [9] the test system is Tetranychus urticae. As to the kind of experiment: Tetranychus test, OP-resistant (TETRUR spray treatment). It counts as in vivo. To be noted: 500 g/ha, bean leaf discs, after 6 days. On the procedure:
Tetranychus Test, OP-resistant (TETRUR Spray Treatment)
Solvent: 78.0 parts by weight of acetone • • 1.5 parts by weight of dimethylformamide
Emulsifier: 0.5 part by weight of alkylaryl polyglycol ether
To prepare an appropriate active ingredient preparation, 1 part by weight of active ingredient is mixed with the stated amounts of solvent and emulsifier, and the concentrate is diluted with emulsifier-containing water to the desired concentration. Discs of bean leaves (Phaseolus vulgaris) infested by all stages of the red spider mite (Tetranychus urticae) are sprayed with an active ingredient preparation of the desired concentration. After 6 days, the efficacy in % is determined. 100% means that all spider mites have been killed; 0% means that none of the spider mites have been killed.

Consider `COc1nccnc1-n1nc(C(F)(F)F)c(-c2cc(Cl)cc(Cl)c2)c1N` [Ex. 6], for which the “log P” value in [1] is given as 3.95*. Moreover, the efficacy was 100% in data set [2], 100% in data set [6] and 83% in [7]. Further, the “efficacy (kill)” value in [3] amounted to 90%; in [4] it was 100%; in data set [5], 80%.
Consider `C=Cc1nn(-c2nccnc2OC)c(N)c1-c1cc(Cl)cc(C(F)(F)F)c1` [Ex. 9], for which, in data set [1], the “log P” value is 3.63*. Also, the efficacy in [2], in data set [8], in data set [6], in data set [7] and in [9] was 100% each time. In addition, in data set [4], the “efficacy (kill)” value was 100%.
On to `COc1nccnc1-n1nc(C(F)(F)F)c(-c2cc(Cl)cc(C(F)(F)F)c2)c1N` [Ex. 10], for which, in data set [1], the “log P” value is reported as 4.07*. The compound also registered an efficacy in data set [2] of 100%. Also, the “efficacy (kill)” value worked out at 90% in [3], 100% in data set [4] and 100% in data set [5].
As to `CCOc1nccnc1-n1nc(C(F)(F)F)c(-c2cc(Cl)cc(C(F)(F)F)c2)c1N` [Ex. 12], the “log P” value in data set [1] is 4.47*. The efficacy in [2] is listed as 100%; in [6], 100%; in data set [9] it was 90%. The “efficacy (kill)” value was determined as 90% in data set [3], 100% in data set [4] and 100% in data set [5].
Take `COc1nccnc1-n1nc(C(F)(F)C(F)(F)F)c(-c2cc(F)cc(C(F)(F)F)c2)c1N` [Ex. 21]: in data set [1], the “log P” value is recorded as 4.23*. Further, the efficacy in data set [2], in [8], in data set [6], in data set [7] and in [9] was 100% each time. In addition, the “efficacy (kill)” value in data set [4] and in [5] was 100% each time.
For the compound `COc1nccnc1-n1nc(C(F)(F)F)c(-c2cc(Cl)cc(C(F)(F)F)c2)c1NCc1ccccc1` [Ex. 33], the “log P” value in data set [1] is reported as 5.28*. Further, the figures for the efficacy in data set [8], in data set [6] and in data set [9] were 80%, 100% and 90%, respectively.
Regarding `COc1ccc(CNc2c(-c3cc(Cl)cc(C(F)(F)F)c3)c(C(F)(F)F)nn2-c2nccnc2OC)cc1` [Ex. 41], the “log P” value in [1] is 5.13*. The “efficacy (kill)” value in data set [3] turned out to be 80%; in data set [4], 100%. The results for the efficacy in [8] and in data set [6] were 90% and 100%, respectively.
`COc1nccnc1-n1nc(C(F)(F)C(F)(F)C(F)(F)F)c(-c2cc(Cl)cc(C(F)(F)F)c2)c1N` [Ex. 46]: the “log P” value in [1] is recorded as 4.91*. Further, the efficacy in data set [2] was determined as 100%; in [8], 80%; in [6], 100%; in data set [7] it was 100%; in data set [9], 80%. Also, the “efficacy (kill)” value in [3] came to 80%; in data set [4] it was 100%.
In the case of `COc1nccnc1-n1nc(C(F)(F)C(F)F)c(-c2cc(Cl)cc(C(F)(F)F)c2)c1N` [Ex. 59], in data set [1], the “log P” value is 4.05*. Further, the efficacy in [8] came to 100%; in data set [6] it was 100%; in data set [7] it was 83%; in data set [9] it was 100%.
As for `COc1cc(-c2c(C(F)(F)F)nn(-c3nccnc3OC)c2N)cc(C(F)(F)F)c1OC` [Ex. 89], the “log P” value in data set [1] was 3.56*. The efficacy in [2], in data set [6] and in data set [7] was 100% throughout. Also, the “efficacy (kill)” value in data set [3] came to 100%; in data set [4] it was 100%; in data set [5], 80%.
As to `C=CCN(CC=C)c1c(-c2cc(Cl)cc(C(F)(F)F)c2)c(C(F)(F)F)nn1-c1nccnc1OC` [Ex. 103], the “log P” value in data set [1] is on record as 4.08*. This compound had an efficacy in data set [8] of 80%.
As for `COc1nccnc1-n1nc(C(F)(F)F)c(-c2cc(Br)c3c(c2)OCCCO3)c1N` [Ex. 131], the “log P” value in [1] is listed as 3.32*. Moreover, the efficacy in [2], in [6], in [7] and in data set [9] was 100% each time. Besides, the “efficacy (kill)” value in data set [3], in data set [4] and in [5] was 100% in each case.
On to `COc1nccnc1-n1nc(C(F)(F)F)c(-c2cc(Cl)c3c(c2)COCO3)c1N` [Ex. 135], for which the “log P” value in [1] is on record as 3.02*. Also, the efficacy amounted to 100% in data set [2], 100% in [6] and 80% in data set [7]. Moreover, the “efficacy (kill)” value in data set [3] and in data set [4] was 100% throughout.
Regarding `COc1nccnc1-n1nc(C(F)(F)F)c(-c2cc(Cl)c3c(c2)OCCCO3)c1N` [Ex. 136], the “log P” value in data set [1] was 3.25*. Moreover, the efficacy in data set [2] and in data set [6] was 100% each time. Further, the “efficacy (kill)” value in data set [3] and in data set [4] was 100% each time.
As to `C=C(C)c1nn(-c2nccnc2OC)c(N)c1-c1cc(Cl)cc(Cl)c1` [Ex. 167], the “log P” value in data set [1] is 3.79*. Moreover, the efficacy in data set [8], in data set [6] and in [9] was 100% in each case.
As to `COc1nccnc1-n1nc(C(C)(C)F)c(-c2cc(Cl)cc(Cl)c2)c1N` [Ex. 168], the “log P” value in data set [1] is given as 3.77*. Moreover, the efficacy in [8], in data set [6], in [7] and in data set [9] was 100% throughout.
